How the values were obtained:
[1] = tested on: estrogen receptor beta; test: Gene expression of estrogen receptor β by real-time PCR in MCF-7 cells; format: cell-based; conditions: MCF-7, 1 μM, 5 days
Description: The gene expression (determined on RNA level) of estrogen receptor beta was determined by quantitative real-time PCR. (TaqMan). MCF-7 mammary carcinoma cells were grown in estrogen deficient media (Phenol-Red-free RPMI with 2% glutamine and 10% charcoal-dextran treated fetal calf serum). […] One untreated control was included as control. The cells were harvested after 5 days of exposure to the compounds; they were harvested by trypsination, washed and shock frozen in liquid nitrogen.
The total RNA was extracted from approximately 10^6 shock frozen MCF-7 cells. The RNA concentration and purity was measured, and RNA was transcribed into cDNA using TaqMan Reverse Trancription reagents (N808-0234). Real-time quantification was performed using standard protocols and premixed PCR reagents. The primer-probe mixes were ordered from Applied Biosystems, ER β (ID Hs00230957_ml) and housekeeping gene hydrocylmethyl-bilane synthase HMBS (ID Hs00609297_ml). Gene expression was calculated using the comparative delta-delta Ct method.

[2] = tested on: HL60, K562, and U937 cells; test: Apoptosis induction in leukemia cells (AO/EB microscopy, Annexin-V/PI flow cytometry); format: cell-based, human; conditions: 0.5-4 μM, 24 hours; AO/EB staining and Annexin-V/PI flow cytometry
Description: Apoptotic cells were defined using morphological criteria and fluorescence-activated cell sorting (FACS) after staining with Annexin V-FITC. For morphologic analysis, 1 μl of stock solution containing 100 μg/ml AO and 100 μg/ml EB was added to 25 μl cells suspension. The apoptitic cells and apoptotic bodies were analyzed with the aid of a fluorescence microscopy. The percentage of apoptotic cells was calculated after counting total 300 cells. For FACS analysis, […] to 5×10^6 cells were washed with PBS and then labeled with Annexin V-FICS and propidium iodide (PI) in medium-binding reagent according to the Annexin V-FITC apoptosis detection kit instruction provided by the manufacturer. Fluorescent signals of FITC and PI were detected, respectively, at 518 nm and at 620 nm on FACSCAN (Becton Dickinson, San Jose, Calif.). […] The data was analyzed by the CellQuest program (Becton Dickinson). For each analysis, 10,000 cells events were recorded.
The percentage of apoptotic cells was determined with the aid of a fluoresence microscope after staining with acridine orange and ethidium bromide (See FIG. 2A). […] The percentage of apoptotic cells was determined by flow cytometry using Annexin-V and PI staining. […] (See FIGS. 2a and 2b)

[3] = tested on: Hela cervix carcinoma cells; test: MTT cytotoxicity with or without nucleoside transport inhibitor dipyridamole; format: cell-based
Description: Dipyridamole was used as an inhibitor of the equilibrative nucleoside transporters hENT1 and hENT2. […] The cells were pre-incubated for 24 hours. Dipyridamole (10 μM) was added to the cells 30 minutes prior to the addition of the test compounds. […] Six wells were used per test concentration. The cells were incubated with test compound for 72 hours.

[4] = Metabolic stability in pooled human plasma at 37° C.; format: in vitro ADME
Description: The mixture was incubated in a shaking water batch at 37° C. Aliquots (100 μl) of the incubation solutions were withdrawn in triplicate (n=3) at the designed incubation period (0, 15, 30, 60 and 120 minutes), and plasma protein was immediately precipitated using acetonitrile containing 0.1% formic acid (300 μl). […] After centrifugation, the supernatant was directly introduced for LC-MS-MS analysis.

[5] = tested on: DU145; test: WST-1 cytotoxicity assay; format: cell-based; conditions: Homo sapiens, DU-145
Description: (§1) Human promyelocytic leukemia cell lines HL60, human histiocytic lymphoma U937, human chronic myelogenous leukemia K562, human acute T cell Jurkat, breast adenocarcinoma MCF-7, urinary bladder carcinoma 5637, prostate carcinoma DU-145 were purchased from American Type Culture Collection. All cell lines except Jurkat were maintained in RPMI 1640 medium (Gibco, Glasgow, UK) supplemented with 10% heat-inactivated fetal calf serum (FCS), 100 U/ml of penicillin, and […] streptomycin, in an atmosphere of 5% CO2 at 37° C. Jurkat cells were cultured in RPMI 1640 medium supplemented with 1.5 g/L sodium bicarbonate, 4.5 g/L glucose, 10 mM sodium pyruvate, and 10% FCS, 100 U/ml of penicillin, and […] streptomycin.
(§2) MCF-7, DU-145, and 5637 cells (1×10^4/ml) were plated and allowed to adhere and spread for 24 hours. […] Cultures were incubated with WST-1 reagent for 1 hour. The production of formazan was measured by a microplate reader (Bio-Tek Instruments, Elx 800) at 450 nm with a reference wavelength of 650 nm. Growth inhibition was determined as compared to untreated cells (%). IC50 values were calculated using CalcuSyn software (Biosoft).

[6] = tested on: Jurkat; test: WST-1 cytotoxicity assay; format: cell-based; conditions: Homo sapiens
Description: as §1, §2

[7] = tested on: MCF-7; test: WST-1 cytotoxicity assay; format: cell-based; conditions: Homo sapiens, MCF7
Description: as §1, §2

[8] = tested on: K562; test: WST-1 cytotoxicity assay; format: cell-based; conditions: Homo sapiens
Description: as §1, §2

[9] = tested on: HL60; test: WST-1 cytotoxicity assay; format: cell-based; conditions: Homo sapiens, HL-60
Description: as §1, §2

[10] = tested on: 5637; test: WST-1 cytotoxicity assay; format: cell-based
Description: as §1, §2

[11] = tested on: U937; test: WST-1 cytotoxicity assay; format: cell-based; conditions: Homo sapiens, U-937
Description: as §1, §2

**Q.** With `CCCCCCCC/C=C/CCCCCCCC(=O)OC[C@H]1O[C@@H](n2cnc(N)nc2=O)[C@H](O)[C@@H]1O` [CP, 5-azacytidine 5′-elaidate] as the molecule, how does the “Ct ER β” value [1] read?
**A.** The value was 32.97.

**Q.** What about the delta [1] of the same molecule?
**A.** The delta was 7.06.

**Q.** And the Delta delta ([1]; versus untreated)?
**A.** Its Delta delta is −2.40.

**Q.** And the “number of apoptotic cells” value [2]?
**A.** The value was “concentration-dependent increase in the number of apoptotic cells”.

**Q.** What about the “cytotoxic activity increased when hENT1 and hENT2 blocked by dipyridamole” value ([3]; Hela, with vs without dipyridamole) of the same molecule?
**A.** Its value is 50 fold.

**Q.** And the IC50 ([3]; Homo sapiens, HeLa, 72 h, Hela with dipyridamole (10 μM), MTT)?
**A.** Its IC50 is 0.23 µM.

**Q.** What about the half-life at 0.1 μM ([4]; 0.1 μM) of the same molecule?
**A.** Its half-life at 0.1 μM is 2.68 h.

**Q.** And the “% Remaining of initial (mean ± SD, n = 3)” value ([4]; 0.1 μM, 0 min)?
**A.** The value was 100%.

**Q.** And the “% Remaining of initial (mean ± SD, n = 3)” value ([4]; 0.1 μM, 15 min)?
**A.** Its value is 95.8 ± 3.0%.

**Q.** And the “% Remaining of initial (mean ± SD, n = 3)” value ([4]; 0.1 μM, 30 min)?
**A.** Its value is 95.0 ± 2.0%.

**Q.** What about the “% Remaining of initial (mean ± SD, n = 3)” value ([4]; 0.1 μM, 60 min) of the same molecule?
**A.** Its value is 92.1 ± 3.4%.

**Q.** What about the “% Remaining of initial (mean ± SD, n = 3)” value ([4]; 0.1 μM, 120 min) of the same molecule?
**A.** The value was 59.0 ± 1.6%.

**Q.** What about the half-life at 1 μM ([4]; 1 μM) of the same molecule?
**A.** Its half-life at 1 μM is 2.17 h.

**Q.** What about the “% Remaining of initial (mean ± SD, n = 3)” value ([4]; 1 μM, 0 min) of the same molecule?
**A.** Its value is 100%.

**Q.** And the “% Remaining of initial (mean ± SD, n = 3)” value ([4]; 1 μM, 15 min)?
**A.** Its value is 93.3 ± 1.1%.

**Q.** What about the “% Remaining of initial (mean ± SD, n = 3)” value ([4]; 1 μM, 30 min) of the same molecule?
**A.** The value was 88.9 ± 1.1%.

**Q.** What about the “% Remaining of initial (mean ± SD, n = 3)” value ([4]; 1 μM, 60 min) of the same molecule?
**A.** Its value is 79.8 ± 2.6%.

**Q.** And the “% Remaining of initial (mean ± SD, n = 3)” value ([4]; 1 μM, 120 min)?
**A.** Its value is 52.5 ± 3.1%.

**Q.** What about the half-life at 3 μM ([4]; 3 μM) of the same molecule?
**A.** The half-life at 3 μM was 2.35 h.

**Q.** What about the “% Remaining of initial (mean ± SD, n = 3)” value ([4]; 3 μM, 0 min) of the same molecule?
**A.** Its value is 100%.

**Q.** What about the “% Remaining of initial (mean ± SD, n = 3)” value ([4]; 3 μM, 15 min) of the same molecule?
**A.** Its value is 99.0 ± 3.5%.

**Q.** And the “% Remaining of initial (mean ± SD, n = 3)” value ([4]; 3 μM, 30 min)?
**A.** Its value is 96.0 ± 3.0%.

**Q.** What about the “% Remaining of initial (mean ± SD, n = 3)” value ([4]; 3 μM, 60 min) of the same molecule?
**A.** The value was 85.4 ± 3.4%.

**Q.** What about the “% Remaining of initial (mean ± SD, n = 3)” value ([4]; 3 μM, 120 min) of the same molecule?
**A.** Its value is 56.6 ± 1.6%.

**Q.** What about the half-life at 10 μM ([4]; 10 μM) of the same molecule?
**A.** The half-life at 10 μM was 1.43 h.

**Q.** What about the “% Remaining of initial (mean ± SD, n = 3)” value ([4]; 10 μM, 0 min) of the same molecule?
**A.** The value was 100%.

**Q.** What about the “% Remaining of initial (mean ± SD, n = 3)” value ([4]; 10 μM, 15 min) of the same molecule?
**A.** Its value is 96.0 ± 2.0%.

**Q.** And the “% Remaining of initial (mean ± SD, n = 3)” value ([4]; 10 μM, 30 min)?
**A.** The value was 93.1 ± 0.0%.

**Q.** What about the “% Remaining of initial (mean ± SD, n = 3)” value ([4]; 10 μM, 60 min) of the same molecule?
**A.** Its value is 77.1 ± 3.1%.

**Q.** And the “% Remaining of initial (mean ± SD, n = 3)” value ([4]; 10 μM, 120 min)?
**A.** The value was 39.1 ± 1.7%.

**Q.** What about the half-life at 30 μM ([4]; 30 μM) of the same molecule?
**A.** The half-life at 30 μM was 1.82 h.

**Q.** What about the “% Remaining of initial (mean ± SD, n = 3)” value ([4]; 30 μM, 0 min) of the same molecule?
**A.** The value was 100%.

**Q.** What about the “% Remaining of initial (mean ± SD, n = 3)” value ([4]; 30 μM, 15 min) of the same molecule?
**A.** The value was 97.7 ± 3.5%.

**Q.** What about the “% Remaining of initial (mean ± SD, n = 3)” value ([4]; 30 μM, 30 min) of the same molecule?
**A.** Its value is 90.4 ± 2.6%.

**Q.** And the “% Remaining of initial (mean ± SD, n = 3)” value ([4]; 30 μM, 60 min)?
**A.** Its value is 78.5 ± 1.7%.

**Q.** And the “% Remaining of initial (mean ± SD, n = 3)” value ([4]; 30 μM, 120 min)?
**A.** Its value is 47.4 ± 1.1%.

**Q.** And the IC50 ([5]; DU145, 24 hour treatment)?
**A.** The IC50 was 6.79 µM.

**Q.** And the IC50 ([5]; DU145, 48 hour treatment)?
**A.** The IC50 was 6.31 µM.

**Q.** And the IC50 ([5]; DU145, 72 hour treatment)?
**A.** Its IC50 is 5.88 µM.

**Q.** And the IC50 ([6]; 24 hour treatment)?
**A.** Its IC50 is 1.19 µM.

**Q.** And the IC50 ([6]; 48 hour treatment)?
**A.** The IC50 was 0.88 µM.

**Q.** And the IC50 ([6]; 72 hour treatment)?
**A.** The IC50 was 0.84 µM.

**Q.** And the IC50 ([7]; MCF-7, 24 hour treatment)?
**A.** Its IC50 is 19.1 µM.

**Q.** And the IC50 ([7]; MCF-7, 48 hour treatment)?
**A.** Its IC50 is 9.32 µM.

**Q.** What about the IC50 ([7]; MCF-7, 72 hour treatment) of the same molecule?
**A.** The IC50 was 9.99 µM.

**Q.** And the IC50 ([8]; K562, 24 hour treatment)?
**A.** Its IC50 is 1.26 µM.

**Q.** And the IC50 ([8]; K562, 48 hour treatment)?
**A.** The IC50 was 0.92 µM.

**Q.** What about the IC50 ([9]; HL60, 24 hour treatment) of the same molecule?
**A.** Its IC50 is 3.19 µM.

**Q.** And the IC50 ([9]; HL60, 48 hour treatment)?
**A.** Its IC50 is 3.6 µM.

**Q.** What about the IC50 ([9]; HL60, 72 hour treatment) of the same molecule?
**A.** Its IC50 is 2.68 µM.

**Q.** What about the IC50 ([10]; 5637, 24 hour treatment) of the same molecule?
**A.** The IC50 was 9.39 µM.

**Q.** What about the IC50 ([10]; 5637, 48 hour treatment) of the same molecule?
**A.** Its IC50 is 5.95 µM.

**Q.** And the IC50 ([10]; 5637, 72 hour treatment)?
**A.** Its IC50 is 3.52 µM.

**Q.** And the IC50 ([11]; U937, 24 hour treatment)?
**A.** The IC50 was 0.44 µM.

**Q.** What about the IC50 ([11]; U937, 48 hour treatment) of the same molecule?
**A.** The IC50 was 0.6 µM.

**Q.** What about the IC50 ([11]; U937, 72 hour treatment) of the same molecule?
**A.** The IC50 was 0.87 µM.

Source: patent US8158605B2, “Azacytidine analogues and uses thereof” (Mount Sinai School of Medicine, priority 2007, dated 2012)
